Measured values taken from patent publication US6569863B1, “Bicyclic heteroamatic compounds useful as LH agonists” (Akzo Nobel NV, priority 1999, dated 2003).

Tests used:
immature female mice = assay: In vivo ovulation induction assay for LH bioactivity in immature female mice; design: species or system mouse; conditions: 50 mg/kg p.o., FSH-primed immature female mice, 24 h after administration
Description: In female immature mice which are stimulated with follicle stimulating hormone (FSH), ovulation can be induced by luteininzing hormone (LH) or by human chorionic gonadotrophin (hCG) which binds to the same LH-receptor on the Graafian follicles. Binding to the LH-receptor initiates a biochemical cascade, which eventually results in follicular rupture and extrusion of a mature oocyte. To measure the in vivo activity of LH-agonistic compounds, inunature 20 days old mice (B6D2F1 stain, Broekman Institute, the Netherlands) are primed with unary FSH (Humegon; 12.5 IU/l, 0.1 ml s.c.) to initiate folliculogenesis. Forty-eight hours after FSH treatment test compound, reference compound or vehicle (10% cremophor solution) are administered to the animals. Test compounds (50 mg/kg in 0.1 ml) and vehicle (0.1 ml) are administered p.o., reference compounds (500 IU/kg hCG in 0.1 ml) are injected s.c. As a reference, hCG in-house standards are used which are calibrated against International Reference preparations of human hCG provided by the National Institute for Biological Standards and Controls (NMSC, London, UK). Twenty-four hours after administration of test compound, reference compound or vehicle, animals are killed by cervical dislocation. The oviducts are dissected and collected in 0.9% NaCl. Next, the oviducts are placed between two glass plates and examined for the presence or absence of ovulated ova under a microscope. The number of ovulated ova present in the oviducts is indicative for in vivo LH-bioactivity.

Leydig cell LH receptor = biological target: T1, Leydig cell LH receptor (Mus musculus, UniProt P30730); assay: In vitro test for LH bioactivity in mouse Leydig cells (testosterone production); assay type: cell-based; conditions: 4 h incubation, testosterone measured by RIA
T1 construct: Leydig cells are isolated from the testes of mature, 9 to 13 weeks old, mice; from tissue; host or cells: primary Leydig cells from mouse testes (strain HSD/Cpb: S E, Harlan)
Description: In male mice, the luteinising hormone (LH) induces testosterone production in testicular Leydig cells. […] The in vitro Leydig cell assay (van Damme et al, 1974; modified by Mannaerts et al, 1987) is used to determine the LH bioactivity of compounds that bind to the Leydig cell LH receptor which in turn causes testosterone production.
For this assay, Leydig cells are isolated from the testes of mature, 9 to 13 weeks old, mice (strain: HSD/Cpb: S E, Harlan, The Netherlands). Therefore, mice are killed and the testes are quickly removed and decapsulated. Each testis is transferred to a separate well of a tissue culture plate containing 0.75 ml culture medium per well. The contents of each well are passed through a 30 cm glass tube (inside diameter 2.5 mm, narrowed to 1.2 mm at 4 places in the middle). The suspension obtained is filtered through a 30 μm nylon mesh and the filtrate is pre-incubated in a 50 ml plastic tube for 30 min. at 37° C. in an incubator in a water-saturated atmosphere of 95% air/5% CO2. Following preincubation the tube is centrifuged at 1600 N/kg for 5 min and the supernatant is decanted. The resulting pellet is resuspended in culture medium (0.5 mg original testis/ml) and the suspension is kept homogeneous by stirring it very slowly on a magnetic stirrer.
This Leydig cell suspension (100 μl) is added to the wells of a micotiter plate containing 50 μl reference compound, test compound or vehicle (culture medium) per well. As a to reference, LH or hCG in-house standards are used which are calibrated against International Reference preparations of human LH or hCG provided by the National Institute for Biological Standards and Controls (NIBSC, London, UK). Test and reference compounds are dissolved, diluted and assayed in the same culture medium. The plates containing reference and test compounds are incubated for 4 h at 37° C. in an incubator in a water-saturated atmosphere of 95% air/5% CO2. Following incubation, plates are sealed and stored at −20° C. until testosterone measurement.
Prior to testosterone measurement, the contents of the microtiter plates are thawed at room temperature and the plates are centriged at 150 N/kg for 5 min. An aliquot of 30 μl supernatant of each well is diluted with culture medium (60×) to obtain a suitable dilution for testosterone measurement. Aliquots (12.5 μl) of each diluted test sample are then assayed using a direct testosterone RIA-kit.

T1 sequence (P30730 27-700): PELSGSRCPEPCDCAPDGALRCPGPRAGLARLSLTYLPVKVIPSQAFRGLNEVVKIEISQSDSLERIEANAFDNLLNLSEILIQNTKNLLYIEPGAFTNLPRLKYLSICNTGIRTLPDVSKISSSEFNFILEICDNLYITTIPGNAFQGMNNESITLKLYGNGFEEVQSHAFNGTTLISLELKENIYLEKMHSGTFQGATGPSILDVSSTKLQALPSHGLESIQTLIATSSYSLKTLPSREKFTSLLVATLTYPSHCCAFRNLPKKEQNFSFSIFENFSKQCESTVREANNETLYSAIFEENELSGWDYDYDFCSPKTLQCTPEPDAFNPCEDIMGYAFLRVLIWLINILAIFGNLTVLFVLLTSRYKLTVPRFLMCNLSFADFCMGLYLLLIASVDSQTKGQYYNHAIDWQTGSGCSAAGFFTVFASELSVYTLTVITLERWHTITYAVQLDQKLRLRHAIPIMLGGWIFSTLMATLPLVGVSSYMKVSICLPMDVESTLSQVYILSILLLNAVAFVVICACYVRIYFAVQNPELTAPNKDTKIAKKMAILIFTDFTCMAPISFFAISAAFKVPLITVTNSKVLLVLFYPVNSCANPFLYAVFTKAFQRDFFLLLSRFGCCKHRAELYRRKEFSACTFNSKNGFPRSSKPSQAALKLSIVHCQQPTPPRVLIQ

Structure (SMILES)	EC50 (Leydig cell LH receptor) [nM]	Mouse in vivo ovulation induction (% ovulating animals) (immature female mice) [%]
CSc1nc(-c2cccc(NC(=O)c3ccccc3)c2)c2c(N)c(C(=O)NC(C)(C)C)sc2n1 [Example 111, tert-Butyl 5-Amino-2-methylthio-4-(N-benzoyl-3-aminophenyl)-thieno[2,3-d]pyrimidine-6-carboxamide]	280	40
COc1cccc(-c2nc(SC)nc3sc(C(=O)NC(C)(C)C)c(N)c23)c1 [Example 112, tert-Butyl 5-Amino-2-methylthio-4-(3-methoxyphenyl)-thieno[2,3-d]pyrimidine-6-carboxamide]	430	40
CCOc1nc(-c2cccc(OC)c2)c2c(N)c(C(=O)NC(C)(C)C)sc2n1 [Example 114, tert-Butyl 5-Amino-2-ethoxy-4-(3-methoxyphenyl)-thieno[2,3-d]pyrimidine-6-carboxamide]	1900	30
CSc1nc(-c2cccc(NC(=O)CNC(C)(C)C)c2)c2c(N)c(C(=O)NC(C)(C)C)sc2n1 [Example 116, tert-Butyl 5-Amino-2-methylthio-4-(N-(2-(tert-butylamino)acetyl)-3-aminophenyl)-thieno[2,3-d]pyrimidine-6-carboxamide]	320	13

The remaining compounds from weak to strong by EC50 (Leydig cell LH receptor), led by results:

EC50 (Leydig cell LH receptor) [nM]	Structure (SMILES)	Mouse in vivo ovulation induction (% ovulating animals) (immature female mice) [%]
3100	COc1cccc(-c2nc(-c3cccs3)nc3sc(C(=O)N4CCOCC4)c(N)c23)c1 [Example 115, 5-Amino-2-(2-thienyl)-4-(3-methoxyphenyl)-6-(N-morpholinocarbonyl)thieno[2,3-d]pyrimidine]	20
1800	CSc1nc(-c2cccc(OCCCc3cccnc3)c2)c2c(N)c(C(=O)NC(C)(C)C)sc2n1 [Example 117, tert-Butyl 5-Amino-2-methylthio-4-(3-(3-(3-pyridyl)-propoxy)phenyl)-thieno[2,3-d]pyrimidine-6-carboxamide]	40
870	COc1cccc(-c2nc(SC)nc3sc(C(=O)N(C)C(C)C)c(N)c23)c1 [Example 113, N-Methyl-N-isopropyl 5-Amino-2-methylthio-4-(3-methoxyphenyl)-thieno[2,3-d]pyrimidine-6-carboxamide]	50
